Measurements published in patent US7081353B2, “Drug susceptibility measurement method and apparatus thereof” (Jikei University School of Medicine, priority 2000, dated 2006).

These molecules were tested on S. epidermidis (Staphilococcus epidermidis) (assay: MIC by conventional measurement method, S. epidermidis). Conditions: 106 cfu/ml, necessary time 18 hours.
Assay type: cell-based
Description: The drug susceptibility measurement results are obtained by employing S. epidermidis (Staphilococcus epidermidis), […] (Genus Enterococcus) as bacteria, and by determining an amount of bacteria to be 10^6 cfu/ml. And, PCG (Penicillin G), IPM (Imipenem), MINO (Minocycline), EM (Erythromycin), OFLX (Ofloxacin), ST (Sulfamethoxazole Trimethoprim), […]) are employed as drug.

(a) MIC values (minimum inhibitory interfering concentration) obtained by a conventional measurement method | Compound
≦0.12 g g/ml | CC[C@H]1OC(=O)[C@H](C)[C@@H](O[C@H]2C[C@@](C)(OC)[C@@H](O)[C@H](C)O2)[C@H](C)[C@@H](O[C@@H]2O[C@H](C)C[C@H](N(C)C)[C@H]2O)[C@](C)(O)C[C@@H](C)C(=O)[C@H](C)[C@@H](O)[C@]1(C)O [EM, Erythromycin]
≦1 g g/ml | C[C@@H](O)[C@H]1C(=O)N2C(C(=O)O)=C(SCCN=CN)C[C@H]12 [IPM, Imipenem]
≦0.12 g g/ml | CN(C)c1ccc(O)c2c1C[C@H]1C[C@H]3[C@H](N(C)C)C(O)=C(C(N)=O)C(=O)[C@@]3(O)C(O)=C1C2=O [MINO, Minocycline]
≦1 g g/ml | CC1COc2c(N3CCN(C)CC3)c(F)cc3c(=O)c(C(=O)O)cn1c23 (centres unmarked) [OFLX, Ofloxacin]

Compound | (a) MIC values (minimum inhibitory interfering concentration) obtained by a conventional measurement method
CN[C@H](CC(C)C)C(=O)N[C@H]1C(=O)N[C@@H](CC(N)=O)C(=O)N[C@H]2C(=O)N[C@H]3C(=O)N[C@H](C(=O)N[C@H](C(=O)O)c4cc(O)cc(O)c4-c4cc3ccc4O)[C@H](O)c3ccc(c(Cl)c3)Oc3cc2cc(c3O[C@@H]2O[C@H](CO)[C@@H](O)[C@H](O)[C@H]2O[C@H]2C[C@](C)(N)[C@H](O)[C@H](C)O2)Oc2ccc(cc2Cl)[C@H]1O [VCM, Vancomycin] | ≦1 g g/ml
